We go through 1 compound from patent US20240197685A1, “SELECTIVE ANGIOTENSIN II RECEPTOR LIGANDS” (priority 2021, published 2024).

Data set [1] is described as follows: Metabolic stability in pooled human liver microsomes. Type of data set: in vitro ADME. Particulars: human, pooled human liver microsomes, human liver microsomes 0.5 mg/mL, test compound 1 μM, 37° C.
The target of data set [2] is T1, human recombinant AT2 receptor (Homo sapiens, UniProt P50052).
T1 construct: Eurofins protocol ITEM26
T1 sequence (P50052 1-363): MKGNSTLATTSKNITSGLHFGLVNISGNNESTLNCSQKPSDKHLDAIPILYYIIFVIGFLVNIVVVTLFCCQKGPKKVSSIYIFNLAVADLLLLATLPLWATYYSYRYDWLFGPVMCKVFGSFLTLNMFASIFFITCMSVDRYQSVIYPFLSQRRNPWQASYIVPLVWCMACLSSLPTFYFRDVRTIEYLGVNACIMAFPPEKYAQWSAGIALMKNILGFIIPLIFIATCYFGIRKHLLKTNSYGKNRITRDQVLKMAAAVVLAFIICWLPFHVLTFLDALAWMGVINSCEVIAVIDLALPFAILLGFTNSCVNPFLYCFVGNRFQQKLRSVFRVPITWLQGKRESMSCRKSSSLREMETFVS
As to the kind of experiment: Binding to AT2 receptor, radiometric scintillation assay (Eurofins). Particulars: single run; 1, 10, 100 and 1000 nM; ligand 125I CGP 42112A; read-out: AT2 GraFit IC50.

The target in data set [3] is T2, human recombinant AT1 receptor (Homo sapiens, UniProt P30556).
T2 construct: Eurofins protocol ITEM24
T2 sequence (P30556 1-359): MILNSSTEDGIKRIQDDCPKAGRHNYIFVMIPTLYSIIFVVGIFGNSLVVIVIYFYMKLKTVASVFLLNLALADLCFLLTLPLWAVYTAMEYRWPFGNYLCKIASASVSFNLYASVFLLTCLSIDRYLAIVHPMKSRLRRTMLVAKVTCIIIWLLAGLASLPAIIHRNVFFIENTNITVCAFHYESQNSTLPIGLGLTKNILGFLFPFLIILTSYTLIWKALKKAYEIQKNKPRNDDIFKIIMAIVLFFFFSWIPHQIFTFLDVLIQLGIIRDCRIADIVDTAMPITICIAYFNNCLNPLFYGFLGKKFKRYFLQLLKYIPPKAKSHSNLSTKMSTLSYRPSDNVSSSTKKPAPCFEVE
As to the kind of experiment: Binding to AT1 receptor, radiometric scintillation assay (Eurofins). The following applies: single run; 1 and 10 μM; ligand 125I(sar1,Ile8)-AT-II.

The target of data set [4] is T3, CYP1A (Homo sapiens, UniProt P05177).
T3 construct: tissue Eurofins protocol ITEMG232; host or cells: human liver microsomes
T3 sequence (P05177 2-516 limits assumed): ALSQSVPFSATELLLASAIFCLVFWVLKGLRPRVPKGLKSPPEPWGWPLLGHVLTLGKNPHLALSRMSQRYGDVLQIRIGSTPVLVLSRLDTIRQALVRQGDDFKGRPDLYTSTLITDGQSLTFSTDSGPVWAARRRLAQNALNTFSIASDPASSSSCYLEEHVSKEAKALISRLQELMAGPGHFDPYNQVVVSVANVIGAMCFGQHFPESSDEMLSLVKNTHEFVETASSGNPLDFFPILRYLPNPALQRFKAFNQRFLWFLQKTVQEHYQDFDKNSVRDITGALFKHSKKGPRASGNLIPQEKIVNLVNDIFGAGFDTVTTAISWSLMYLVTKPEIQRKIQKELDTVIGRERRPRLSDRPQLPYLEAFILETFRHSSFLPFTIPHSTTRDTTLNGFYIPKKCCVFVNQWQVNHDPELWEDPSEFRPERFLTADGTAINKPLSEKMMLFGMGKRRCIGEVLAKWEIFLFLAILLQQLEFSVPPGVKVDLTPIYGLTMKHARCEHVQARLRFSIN
As to the kind of experiment: CYP inhibition, human liver microsomes. The following applies: probe phenacetin, substrate phenacetin, read-out: CYP1A Inh %. The data set is classed as in vitro ADME.

The target of data set [5] is T4, CYP2B6 (Homo sapiens, UniProt P20813).
T4 construct: tissue Eurofins protocol ITEMG232; host or cells: human liver microsomes
T4 sequence (P20813 1-491): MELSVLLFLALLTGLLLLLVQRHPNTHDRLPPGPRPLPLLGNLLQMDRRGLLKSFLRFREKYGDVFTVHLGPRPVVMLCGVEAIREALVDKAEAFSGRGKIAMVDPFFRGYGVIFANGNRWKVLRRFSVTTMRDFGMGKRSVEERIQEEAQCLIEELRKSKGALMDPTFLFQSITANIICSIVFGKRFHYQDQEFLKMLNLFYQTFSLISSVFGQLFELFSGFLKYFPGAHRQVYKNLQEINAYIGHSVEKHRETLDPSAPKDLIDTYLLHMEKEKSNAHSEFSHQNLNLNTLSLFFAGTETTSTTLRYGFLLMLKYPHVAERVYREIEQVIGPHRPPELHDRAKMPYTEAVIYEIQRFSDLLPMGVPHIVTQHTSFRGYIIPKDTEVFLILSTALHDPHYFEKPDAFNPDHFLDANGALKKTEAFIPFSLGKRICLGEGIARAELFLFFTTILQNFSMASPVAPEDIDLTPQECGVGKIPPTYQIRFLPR
As to the kind of experiment: CYP inhibition, human liver microsomes. Type of data set: in vitro ADME. Particulars: probe bupropion, substrate bupropion, read-out: CYP2B6 Inh %.

For data set [6], the target named is T5, CYP2C19 (Homo sapiens, UniProt P33261).
T5 construct: tissue Eurofins protocol ITEMG232; host or cells: human liver microsomes
T5 sequence (P33261 whole entry): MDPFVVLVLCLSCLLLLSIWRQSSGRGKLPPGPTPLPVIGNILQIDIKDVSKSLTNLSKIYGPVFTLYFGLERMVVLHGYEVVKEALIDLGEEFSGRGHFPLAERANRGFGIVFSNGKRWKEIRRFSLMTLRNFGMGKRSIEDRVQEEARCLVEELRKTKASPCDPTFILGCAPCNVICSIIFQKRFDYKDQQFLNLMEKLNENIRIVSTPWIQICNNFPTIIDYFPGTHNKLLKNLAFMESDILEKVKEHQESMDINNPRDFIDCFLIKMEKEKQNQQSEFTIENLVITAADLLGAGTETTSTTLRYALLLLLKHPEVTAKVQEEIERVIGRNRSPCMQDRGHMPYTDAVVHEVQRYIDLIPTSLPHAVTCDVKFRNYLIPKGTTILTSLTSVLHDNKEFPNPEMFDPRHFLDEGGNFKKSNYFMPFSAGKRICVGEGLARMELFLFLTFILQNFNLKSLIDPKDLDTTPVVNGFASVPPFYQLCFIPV
As to the kind of experiment: CYP inhibition, human liver microsomes. Type of data set: in vitro ADME. The following applies: probe omeprazole, substrate omeprazole, read-out: CYP2C19 Inh %.

The target in data set [7] is T6, CYP2C8 (Homo sapiens, UniProt P10632).
T6 construct: tissue Eurofins protocol ITEMG232; host or cells: human liver microsomes
T6 sequence (P10632 1-490): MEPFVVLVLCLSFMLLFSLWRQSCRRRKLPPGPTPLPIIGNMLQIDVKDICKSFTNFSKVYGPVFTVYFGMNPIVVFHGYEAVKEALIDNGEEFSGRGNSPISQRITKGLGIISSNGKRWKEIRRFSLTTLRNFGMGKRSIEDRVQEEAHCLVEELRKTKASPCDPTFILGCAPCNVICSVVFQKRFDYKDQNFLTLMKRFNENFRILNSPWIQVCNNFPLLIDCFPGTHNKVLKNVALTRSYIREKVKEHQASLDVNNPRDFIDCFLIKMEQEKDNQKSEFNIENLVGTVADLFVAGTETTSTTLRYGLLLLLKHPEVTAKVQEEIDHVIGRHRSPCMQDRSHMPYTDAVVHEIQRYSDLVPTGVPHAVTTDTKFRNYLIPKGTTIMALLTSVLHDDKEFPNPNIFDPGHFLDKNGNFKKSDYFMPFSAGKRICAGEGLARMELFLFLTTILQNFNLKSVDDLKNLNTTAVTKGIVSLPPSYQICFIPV
The data set is described as follows: CYP inhibition, human liver microsomes. Type of data set: in vitro ADME. Particulars: probe paclitaxel and amodiaquine, substrates paclitaxel and amodiaquine, read-out: CYP2C8 Inh %.

The target in data set [8] is T7, CYP2C9 (Homo sapiens, UniProt P11712).
T7 construct: tissue Eurofins protocol ITEMG232; host or cells: human liver microsomes
T7 sequence (P11712 whole entry): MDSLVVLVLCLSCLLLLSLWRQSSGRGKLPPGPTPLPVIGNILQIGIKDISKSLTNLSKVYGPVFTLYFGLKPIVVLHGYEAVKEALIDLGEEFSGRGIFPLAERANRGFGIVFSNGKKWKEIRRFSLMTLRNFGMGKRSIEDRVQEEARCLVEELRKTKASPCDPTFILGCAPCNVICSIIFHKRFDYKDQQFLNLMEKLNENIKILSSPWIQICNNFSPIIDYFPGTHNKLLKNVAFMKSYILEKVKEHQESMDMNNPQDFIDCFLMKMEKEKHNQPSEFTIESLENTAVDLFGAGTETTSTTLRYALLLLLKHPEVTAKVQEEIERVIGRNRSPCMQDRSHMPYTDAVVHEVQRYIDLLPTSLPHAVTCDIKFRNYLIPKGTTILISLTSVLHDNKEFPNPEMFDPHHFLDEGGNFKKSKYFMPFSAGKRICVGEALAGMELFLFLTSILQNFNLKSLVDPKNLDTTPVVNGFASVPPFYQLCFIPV
The data set is described as follows: CYP inhibition, human liver microsomes. Type of data set: in vitro ADME. The following applies: probe diclofenac; 10 μM, substrate diclofenac, human liver microsomes; read-out: CYP2C9 Inh %.

The target in data set [9] is T8, CYP2D6 (Homo sapiens, UniProt P10635).
T8 construct: tissue Eurofins protocol ITEMG232; host or cells: human liver microsomes
T8 sequence (P10635 whole entry): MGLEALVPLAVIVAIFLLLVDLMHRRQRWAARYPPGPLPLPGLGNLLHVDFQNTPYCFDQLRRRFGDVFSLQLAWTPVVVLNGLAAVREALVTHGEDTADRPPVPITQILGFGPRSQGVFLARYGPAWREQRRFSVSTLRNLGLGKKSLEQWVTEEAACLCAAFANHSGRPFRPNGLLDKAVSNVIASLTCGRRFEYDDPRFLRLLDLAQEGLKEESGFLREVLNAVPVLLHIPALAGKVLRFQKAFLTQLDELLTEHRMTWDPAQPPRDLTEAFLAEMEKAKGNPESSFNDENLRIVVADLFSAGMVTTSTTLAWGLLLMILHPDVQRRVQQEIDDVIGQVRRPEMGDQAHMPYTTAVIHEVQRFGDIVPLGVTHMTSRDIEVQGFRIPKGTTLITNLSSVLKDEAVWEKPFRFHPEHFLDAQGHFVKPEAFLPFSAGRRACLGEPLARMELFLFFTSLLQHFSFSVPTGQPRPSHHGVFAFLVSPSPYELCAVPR
The data set is described as follows: CYP inhibition, human liver microsomes. The following applies: probe dextromethorphan, substrate dextromethorphan, read-out: CYP2D6 Inh %. Type of data set: in vitro ADME.

In data set [10] the target is T9, CYP3A4 (Homo sapiens, UniProt P08684).
T9 construct: tissue Eurofins protocol ITEMG232; host or cells: human liver microsomes
T9 sequence (P08684 whole entry): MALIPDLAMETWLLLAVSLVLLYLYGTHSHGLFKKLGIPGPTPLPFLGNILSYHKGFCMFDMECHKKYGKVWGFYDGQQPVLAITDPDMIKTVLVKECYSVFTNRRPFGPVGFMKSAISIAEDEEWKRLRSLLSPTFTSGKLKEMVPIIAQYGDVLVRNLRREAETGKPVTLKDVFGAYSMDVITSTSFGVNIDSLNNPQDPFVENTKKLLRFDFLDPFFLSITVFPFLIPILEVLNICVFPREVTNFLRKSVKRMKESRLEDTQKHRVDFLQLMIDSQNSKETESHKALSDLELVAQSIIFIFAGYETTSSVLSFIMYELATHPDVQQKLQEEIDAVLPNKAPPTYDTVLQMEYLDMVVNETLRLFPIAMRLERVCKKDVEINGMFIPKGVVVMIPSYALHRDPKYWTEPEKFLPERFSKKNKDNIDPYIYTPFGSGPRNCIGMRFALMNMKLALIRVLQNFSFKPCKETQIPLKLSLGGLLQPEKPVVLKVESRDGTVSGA
As to the kind of experiment: CYP inhibition, human liver microsomes. The data set is classed as in vitro ADME. Particulars: probe midazolam; 10 μM, substrate midazolam, human liver microsomes; read-out: CYP3A4 midazolam Inh %.

The subject of data set [11] is CYP3A4&5. As to the kind of experiment: CYP inhibition, human liver microsomes. Type of data set: in vitro ADME. The following applies: probe testosterone, substrate testosterone, read-out: CYP3A4&5 testosterone Inh %.

Read-outs that look alike come from different tables or passages of the source.

Consider `CC(C)Cc1cc(-c2ccc(Cn3ccnc3C(C)(C)C)c(F)c2)c(S(=O)(=O)NC(=O)NCc2cccs2)s1` [Example 7, 1-[[3-[4-[(2-Tert-butylimidazol-1-yl)methyl]-3-fluoro-phenyl]-5-isobutyl-2-thienyl]sulfonyl]-3-(2-thienylmethyl)urea], for which the half-life at 1 μM was 23 min in data set [1] (with 1 mM NADPH, read-out: T1/2, + NaDPH) and more than 60 min in [1] (without NADPH, read-out: T1/2, no NaDPH). Besides, the values for the 50% inhibitory concentration (IC50) in data set [2] and in [3] were 5 nM and 3.1 µM, respectively. The inhibition at 10 µM in [4] was determined as 20.7%; in data set [5], 50.5%; in data set [6] it was 49.1%; in data set [7] it was 79.9%; in data set [8] it was 76.3%; in data set [9], 13.8%. Further, the inhibition at 10 µM was 52.3% in data set [10] and 16.7% in data set [11].
